Test results reported in the supplement of paper PMC10307832.

Assays:
Assay in all cases: relative viability (nuclei count vs DMSO), 5 days (fraction); higher = more cells survive
Selisistat + Alpelisib = compound: C1CC(C2=C(C1)C3=C(N2)C=CC(=C3)Cl)C(=O)N [Selisistat] + Cc1nc(NC(=O)N2CCC[C@H]2C(N)=O)sc1-c1ccnc(C(C)(C)C(F)(F)F)c1 [Alpelisib] (partner 2 µM)
How it was run: (§1)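 One day after seeding in 1536-well plates, lung cancer cell lines were dosed by pin tool. Dosing was either single-drug or a fixed anchor-drug dose plus five library-drug doses (not always all listed) in √10 steps. After 5 days, nuclei were stained in one fix-and-stain step and counted on 4× images, and relative viability is the nuclei count of treated wells over that of vehicle wells, given as the median of duplicate plates.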

Selisistat + Dasatinib = compound: C1CC(C2=C(C1)C3=C(N2)C=CC(=C3)Cl)C(=O)N [Selisistat] + Cc1nc(Nc2ncc(C(=O)Nc3c(C)cccc3Cl)s2)cc(N2CCN(CCO)CC2)n1 [Dasatinib] (partner 0.075 µM)
How it was run: as §1

Serdemetan + Foretinib = compound: c1ccc2c(CCNc3ccc(Nc4ccncc4)cc3)c[nH]c2c1 [Serdemetan] + COc1cc2c(Oc3ccc(NC(=O)C4(C(=O)Nc5ccc(F)cc5)CC4)cc3F)ccnc2cc1OCCCN1CCOCC1 [Foretinib] (partner 0.25 µM)
How it was run: as §1

Serdemetan + Crizotinib = compound: c1ccc2c(CCNc3ccc(Nc4ccncc4)cc3)c[nH]c2c1 [Serdemetan] + C[C@@H](Oc1cc(-c2cnn(C3CCNCC3)c2)cnc1N)c1c(Cl)ccc(F)c1Cl [Crizotinib] (partner 1 µM)
How it was run: as §1

Row | Cell Line | relative viability (Selisistat + Alpelisib; first compound 0.4 µM) | relative viability (Selisistat + Alpelisib; first compound 1.265 µM) | relative viability (Selisistat + Alpelisib; first compound 4 µM) | relative viability (Selisistat + Alpelisib; first compound 12.65 µM) | relative viability (Selisistat + Alpelisib; first compound 40 µM) | relative viability (Selisistat + Dasatinib; first compound 0.4 µM) | relative viability (Selisistat + Dasatinib; first compound 1.265 µM) | relative viability (Selisistat + Dasatinib; first compound 12.65 µM) | relative viability (Selisistat + Dasatinib; first compound 40 µM) | relative viability (Serdemetan + Foretinib; first compound 0.04 µM) | relative viability (Serdemetan + Foretinib; first compound 0.1265 µM) | relative viability (Serdemetan + Foretinib; first compound 0.4 µM) | relative viability (Serdemetan + Foretinib; first compound 1.265 µM) | relative viability (Serdemetan + Foretinib; first compound 4 µM) | relative viability (Serdemetan + Crizotinib; first compound 0.04 µM) | relative viability (Serdemetan + Crizotinib; first compound 0.1265 µM) | relative viability (Serdemetan + Crizotinib; first compound 0.4 µM) | relative viability (Serdemetan + Crizotinib; first compound 1.265 µM) | relative viability (Serdemetan + Crizotinib; first compound 4 µM) | relative viability (Selisistat + Dasatinib; first compound 4 µM)
1 | NCI-H2087 | 1.33 | 0.933 | 1 | 0.971 | 1.04 | 1.08 | 0.837 | 0.82 | 0.777 | 1.01 | 0.92 | 0.858 | 0.447 | 0.355 | 1.14 | 0.746 | 0.699 | 0.426 | 0.487 | 
2 | NCI-H2126 | 0.812 | 0.77 | 0.758 | 0.863 | 0.81 | 0.705 | 0.597 | 0.601 | 0.616 | 1.23 | 1.13 | 1.03 | 1.01 | 1.03 | 1.02 | 1.07 | 0.944 | 0.734 | 1 | 0.525
3 | NCI-H2170 | 0.885 | 0.805 | 0.815 | 0.771 | 0.881 | 0.468 | 0.47 | 0.563 | 0.63 | 1.02 | 0.97 | 1.05 | 0.637 | 1.14 | 1.13 | 1.16 | 1.16 | 1.22 | 1.22 | 0.521
4 | NCI-H2228 | 0.721 | 0.687 | 0.587 | 0.691 | 0.647 | 0.68 | 0.577 | 0.536 | 0.557 | 0.755 | 0.518 | 0.784 | 0.303 | 0.258 | 0.466 | 0.284 | 0.591 | 0.237 | 0.287 | 0.449
5 | NCI-H2347 | 1.17 | 1.15 | 0.824 | 1 | 1.12 | 0.343 | 0.299 | 0.344 | 0.31 | 1.08 | 0.831 | 0.89 | 0.954 | 0.604 | 0.673 | 0.699 | 0.674 | 0.506 | 0.0688 | 0.171
6 | NCI-H2405 | 0.769 |  |  | 0.834 | 0.845 | 0.221 | 0.189 | 0.204 | 0.276 | 1.03 | 1.01 | 1.01 | 0.902 | 0.764 | 0.81 | 0.781 | 0.818 | 0.763 | 0.608 | 0.178
7 | NCI-H3122 | 0.743 | 0.694 | 0.407 | 0.873 | 0.748 | 0.999 | 0.736 | 0.842 | 0.791 | 0.992 | 0.932 | 0.972 |  | 1.01 | 0.292 | 0.241 | 0.28 |  | 0.237 | 0.639
8 | PC-3 [JPC-3] | 1.08 | 0.973 | 1.05 | 1.02 | 1.05 | 0.998 | 0.976 | 0.975 | 0.976 | 0.98 | 1 | 0.946 | 1.09 | 1.06 | 0.947 | 0.94 |  | 1.02 | 1.03 | 0.884
9 | PC-14 | 0.918 | 0.885 | 0.994 | 0.952 | 1.1 | 0.259 | 0.302 | 0.289 | 0.3 | 0.862 | 0.939 | 0.376 | 0.83 | 1.1 | 0.899 | 0.87 | 0.793 | 0.649 | 0.745 | 0.279
10 | RERF-LC-KJ | 0.853 | 0.754 | 0.632 | 0.789 | 0.73 | 1.04 | 0.813 | 0.625 | 0.568 | 0.836 | 0.884 | 0.786 | 0.79 | 0.887 | 0.763 | 0.818 | 0.718 | 0.705 | 0.753 | 0.818
11 | SK-LU-1 | 1.02 | 1.05 | 1.33 | 1.03 | 0.846 | 0.166 | 0.176 | 0.191 | 0.184 | 0.767 | 0.745 | 0.77 |  | 0.61 | 0.813 | 0.899 | 0.82 | 0.679 | 0.712 | 0.186
12 | SK-MES-1 | 1.01 | 0.951 | 0.836 | 0.838 | 0.896 | 0.451 | 0.294 | 0.346 | 0.264 | 0.877 | 0.915 | 0.842 | 0.847 | 0.534 | 0.983 | 0.976 | 0.898 | 0.647 | 0.56 | 0.293
13 | SW 1573 | 0.703 | 0.884 | 0.716 | 0.804 | 0.864 | 0.567 | 0.385 | 0.616 | 0.499 | 0.898 | 0.815 | 0.877 | 0.668 | 0.422 | 0.851 | 0.702 | 0.761 | 0.385 | 0.207 | 0.456
